Measured values from patent US20160256535A1, “HEXAPEPTIDE AND USES THEREOF” (priority 2013, published 2016).
Residues, ends and D or L forms follow the SMILES beside them.

B1: rMnSOd: recombinant form of LSA-type-MnSOD bearing the 24 amino acid leader peptide at the N-terminus (protein, UniProt P04179 1-222, looked up)
chain: MLSRAVCGTSRQLAPVLGYLGSRQKHSLPDLPYDYGALEPHINAQIMQLHHSKHHAAYVNNLNVTEEKYQEALAKGDVTAQIALQPALKFNGGGHINHSIFWTNLSPNGGGEPKGELLEAIKRDFGSFDKFKEKLTAASVGVQGSGWGWLGFNKERGHLQIAACPNQDPLQGTTGLIPLLGIDVWEHAYYLQYKNVRPDYLKAIWNVINWENVTERYMACKK
modifications: full-length

How the values were obtained:
[1] = system: A-2780; assay: Cytotoxicity by LDH release (Cytotox 96); type: cell-based, human; settings: % of total LDH; for LDH release: 1.5 μM, 24 hr or 48 hr
Procedure: (§1) The leader peptide of 24 aa. […] The release of lactate dehydrogenase (LDH) was then measured quantitatively in the supernatant of the culture medium of the cells after 24 hr of incubation, using the Cytotox 96 non riadioactive cytotoxic assay kit in compliance with the technical indications provided by Promega. The experiments were performed in triplicate in an independent manner, using different preparations. (Table III)
(§2) After the incubation the amount of lactate dehydrogenase (LDH) released from cells into the supernatant was measured. This quantity was expressed as a percentage of the total LDH (released by cells in which cell lysis had been induced using a detergent). Approximately 3% of LDH was found in the culture medium of not treated cells.

[2] = system: DU145; assay: Determination of platinum in culture medium and cell pellet by atomic absorption spectrophotometry; type: cell-based, human; settings: 92 μM, 3 hours
Procedure: (§3) The cells to be examined, after the incubation period, were harvested, washed twice in buffered solution (PBS) and treated with 50 μl of 35% HNO3 for 16 hours. The platinum (Pt) contained in the culture medium or in the cell pellet was determined by spectrophotometer at atomic absorption (Analyst 800, Perkin-Elmer, Norwalk, Conn.) using the following criteria: temperature of pretreatment, 1300° C., temperature of atomizing 2200° C. 0.015 μg of palladium were used (palladium has been used for the modification of the matrix) and 0.01 μg of Mg (NO3)2 as a modifier of the matrix. The determinations were performed using a graphite furnace equipped with the correction system of the Zeeman effect. For the determination of the metal, tubes of pyrolytic graphite coated with THGA were used (Perkin-Elmer) with an integrated “vov-type platform” system. A standard solution of platinum in 2.5% HNO3 (Spectrascan) was used as a mother solution for the construction of a calibration curve with three points of reference. Each determination was performed independently, in triplicate (11).

[3] = system: MCF-7; assay: as above; type: cell-based, human; settings: 92 μM, 3 hours
Procedure: as §3

[4] = system: HUH-7; assay: as above; type: cell-based, human; settings: 92 μM, 3 hours
Procedure: as §3

[5] = system: A2780; assay: as above; type: cell-based, human; settings: 92 μM, 3 hours
Procedure: as §3

[6] = system: A375; assay: as above; type: cell-based, human; settings: 92 μM, 3 hours
Procedure: as §3

[7] = system: PaTu Ca pancreatic; assay: Cytotoxicity by LDH release (Cytotox 96); type: cell-based, human; parameters: LDH μelease: dose or concentration left out as unconfirmed; settings: % of total LDH; for LDH release: 1.5 μM, 24 hr or 48 hr
Procedure: as §1, §2

[8] = system: HUT-7 Hepatocarcinoma; assay: Cytotoxicity by LDH release (Cytotox 96); type: cell-based, human; parameters: LDH μelease: dose or concentration left out as unconfirmed; settings: % of total LDH; for LDH release: 1.5 μM, 24 hr or 48 hr
Procedure: as §1, §2

[9] = system: MRC-5; assay: Cytotoxicity by LDH release (Cytotox 96); type: cell-based, human; parameters: LDH μelease: dose or concentration left out as unconfirmed; settings: % of total LDH; for LDH release: 1.5 μM, 24 hr or 48 hr
Procedure: as §1, §2

[10] = system: Human breast carcinoma MCF-7; assay: Cytotoxicity by LDH release (Cytotox 96); type: cell-based; settings: % of total LDH; for LDH release: 1.5 μM, 24 hr or 48 hr
Procedure: as §1, §2

[11] = system: Human Normal Lymphocytes; assay: Lymphocyte penetration, immunocytochemistry / immunofluorescence; type: cell-based; settings: 3 hour incubation
Procedure: Human Normal Lymphocytes cells were collected from healthy donors and purified using Ficoll Hystopaque density gradient centrifugation. The cells were cultured at a density of 1×10^6 cells/mL in RPMI media supplemented with 1% Penstrep and 10% FBS in a humidified atmosphere containing 5% CO2 at 37° C.
(§4) A cytospin was used to smear cells onto slides. The smears were fixed in Zamboni solution (4% paraformaldehyde, 15% picric acid) for 60 minutes and then washed with 1×PBS and incubated for five minutes with 3% hydrogen peroxide to quench endogenous peroxidase activity. Immunostaining was performed using the DAKO LSA+System HRP kit. Rabbit anti-rMnSOD-Lp (1:200), was incubated on slides for 30 minutes, followed by incubation with the biotinylated secondary antibody for 30 minutes and peroxidase-labeled streptavidin for 30 minutes. To complete the reaction, a substrate-chromogen solution was used. The smears were counterstained with hematoxylin.

[12] = Cytotoxicity by LDH release, summary over the cell lines; type: cell-based; settings: human
[13] = system: Jurkat cells; assay: Jurkat cell penetration, immunofluorescence; type: cell-based, human; settings: 92 μM, 3 h
Procedure: Jurkat cells (ATTC, UK) were seeded at density of 150000 cells/well in RPMI media supplemented with 1% Penstrep and 10% FBS in a humidified atmosphere containing 5% CO2 at 37°. The next day, the cells were incubated with 92 μM AVCGTG (SEQ ID NO. 1)-FITC for 3 h in multiwell 24. Subsequently, a cytospin was used to smear cells onto slides. The smears were fixed with 4% paraformaldehyde/PBS for 10 min and rinsed twice with 1×PBS containing 0.1% Triton to remove traces of fixative. Cell samples without AVCGTG (SEQ ID NO. 1)-FITC were used for the background control. After blocking solution with 5% NGS (Normal Goat Serum, VECTOR) 1×PBS+0,1% Triton X-100, was added for 30 minutes. After removing the blocking solution, cells were incubated with primary antibody hexapeptide, diluted 1:200 in blocking solution, overnight at 4° C. The following day, after washing with lx PBS and 0.1% Triton X-100 for 10 minutes, secondary antibody (ALEXA FLUO 488A, SANTACRUZ) diluted 1:400 with 1×PBS and 0.1% Triton X-100 for 2 h was added. The excess of antibody was removed with 3 washes with 1×PBS.
Nuclei were stained with DAPI (1 μg/mL). The slides were mounted and stored in the dark at 4° C. and then observed by fluorescence microscope ZEISS HB050 by using the software Axion Vision Re1.4.8.

[14] = system: tumor cells of human origin; assay: Immuno-histochemical assessment of internalization; type: cell-based; settings: text summary of Table II
Procedure: (§5) Subsequently, a cytospin was used to obtain a smear of cells on slides. The cells were then placed in Zamboni solution (4% paraformaldehyde, 15% picric acid) for 60 min and then washed with a solution of 1×PBS and incubated for 5 min with 3% hydrogen peroxide to suppress the action of endogenous peroxidase. The immuno-coloring was performed using the Dako LSA+System HRP kit (DAKO, CA, USA). The incubation lasted 30 minutes with primary antibody anti-peptide leader of 24 aa (1:200), produced in rabbits. This phase was followed by sequential method that requires a 30-min incubation with biotinylated antibody and peroxidase-labeled streptavidin. To complete the reaction of differentiation, a substrate-chromogen solution was engaged. Cell smears were colored with hematoxylin.
(§6) A positive reaction is represented by a brownish coloration. A blue coloration indicates negativity.
The immunocytochemical analysis was performed using a polyclonal antibody able to recognize the amino acid sequence of the peptide leader of rMnSOD (7), ie of 24 aa. among which there are also those that form the hexapeptide.
After incubation with these molecules, the cells were washed and treated with the polyclonal antibody for three hours at rt, and then the cells were washed with a solution of PBS [17, 18]. In control cells (not treated and those treated with the antibody alone), the reaction is negative. […]

[15] = system: white blood cells; assay: White blood cell penetration, immunocytochemistry at light microscopy; type: cell-based, human; settings: healthy subject
Procedure: as §4, with “Lymphocytes were incubated for five hours in the presence of fluorescinated Hexapeptide 92 μM. A cytospin” for “A cytospin”

[16] = system: cells; assay: Ability of hexapeptide conjugated to fluorescein to enter cells (immunocytochemistry); type: cell-based; settings: immunocytochemistry examination
Description: The test results are positive and confirms the previous data.

[17] = system: Human breast cancer MCF-7; assay: Immuno-histochemical assessment of internalization (Ab anti-leader peptide 24 aa); type: cell-based; settings: 3 hours, 92 μM, positive = brownish coloration
Procedure: as §5, with “The cells were then placed in Zamboni solution (4% paraformaldehyde, 15% picric acid) for 60 min and then washed with a solution of 1×PBS and incubated for 5 min with 3% hydrogen peroxide to suppress the action of endogenous peroxidase.” left out
as §6
(§7) After incubation with these molecules, the cells were washed and treated with the polyclonal antibody for three hours at rt, and then the cells were washed with a solution of PBS [17, 18].

[18] = system: A-375 Melanoma; assay: as above; type: cell-based, human; settings: 3 hours, 92 μM, positive = brownish coloration
Procedure: as §5, with “The cells were then placed in Zamboni solution (4% paraformaldehyde, 15% picric acid) for 60 min and then washed with a solution of 1×PBS and incubated for 5 min with 3% hydrogen peroxide to suppress the action of endogenous peroxidase.” left out
as §6, §7

[19] = system: A-2780 Ovarian Ca; assay: as above; type: cell-based, human; settings: 3 hours, 92 μM, positive = brownish coloration
Procedure: as §5, with “The cells were then placed in Zamboni solution (4% paraformaldehyde, 15% picric acid) for 60 min and then washed with a solution of 1×PBS and incubated for 5 min with 3% hydrogen peroxide to suppress the action of endogenous peroxidase.” left out
as §6, §7

[20] = system: DU 145 Renal Cell Carcinoma; assay: as above; type: cell-based, human; settings: 3 hours, 92 μM, positive = brownish coloration
Procedure: as §5, with “The cells were then placed in Zamboni solution (4% paraformaldehyde, 15% picric acid) for 60 min and then washed with a solution of 1×PBS and incubated for 5 min with 3% hydrogen peroxide to suppress the action of endogenous peroxidase.” left out
as §6, §7

[21] = system: HUH HCC; assay: as above; type: cell-based, human; settings: 3 hours, 92 μM, positive = brownish coloration
Procedure: as §5, with “The cells were then placed in Zamboni solution (4% paraformaldehyde, 15% picric acid) for 60 min and then washed with a solution of 1×PBS and incubated for 5 min with 3% hydrogen peroxide to suppress the action of endogenous peroxidase.” left out
as §6, §7

Row | Molecule | LDH release [1] [%] | Cellular uptake of Pt [2] [%] | Pt cell pellet [2] [µg/L] | Cellular uptake of Pt [3] [%] | Pt cell pellet [3] [µg/L] | Cellular uptake of Pt [4] [%] | Pt cell pellet [4] [µg/L] | Cellular uptake of Pt [5] [%] | Pt cell pellet [5] [µg/L] | Cellular uptake of Pt [6] [%] | Pt cell pellet [6] [µg/L] | LDH release [7] [%] | LDH release [8] [%] | LDH release [9] [%] | LDH release [10] [%] | reaction with polyclonal antibody against leader peptide of 24 aa [14] | internalization, reaction with Ab anti-peptide (24 aa) [17] | internalization, reaction with Ab anti-peptide (24 aa) [18] | internalization, reaction with Ab anti-peptide (24 aa) [19] | internalization, reaction with Ab anti-peptide (24 aa) [20] | further results
1 | N.N.[Cl][Pt][Cl] [CC, cisplatin, reference compound] | 36 | 0.9 | 167.3 | 2.6 | 760 | 1.2 | 242.9 | 0.75 | 163 | 1.5 | 399.9 | 25 | 32 | 37 | 48 | – | – | – | – | – | –
2 | CC(C)[C@H](NC(=O)[C@H](C)N)C(=O)N[C@@H](CS)C(=O)NCC(=O)N[C@H](C(=O)NCC(=O)O)[C@@H](C)O [Hexapeptide, AVCGTG] (H-AVCGTG-OH; N-terminus assumed) | – | – | – | – | – | – | – | – | – | – | – | – | – | – | – | positive | – | – | – | – | internalization in lymphocytes [11]: cytoplasmic internalization; mortality at 24 hr, 1.5 μM [12]: 2 to 5%; penetration into Jurkat cells [13]: cytoplasmic internalization; LDH μelease ([1]; 1.5 mM): 5%; penetration into white blood cells [15]: positive; LDH μelease ([7]; not treated cells): 3%; LDH μelease [8]: 4%; LDH μelease ([9]; not treated cells): 2%; LDH μelease ([10]; 1.5 mM): 5%
3 | ACTGVG [reference compound] | – | – | – | – | – | – | – | – | – | – | – | – | – | – | – | – | – | – | – | – | penetration into the cells [16]: does not penetrate into the cells
4 | Lp-CC (AVCGTG) | 85 | 13.8 | 342.8 | 4.2 | 97 | 5.2 | 118.7 | 5.9 | 144 | 15.5 | 372 | 60 | 69 | 40 | 77 | – | positive | positive | positive | positive | internalization, reaction with Ab anti-peptide (24 aa) [21]: positive
5 | B1 | – | – | – | – | – | – | – | – | – | – | – | – | – | – | – | positive | positive | positive | positive | positive | internalization, reaction with Ab anti-peptide (24 aa) [21]: positive
